Results from US7390820B2, “Substituted quinolinone derivatives and methods of use” (Amgen Inc., priority 2003, dated 2008).

Each compound was assayed on Human Umbilical Vein Endothelial cells (assay: HUVEC proliferation assay (VEGF-stimulated)). Settings: 72 h, CyQuant, read-out: inhibition of VEGF-stimulated HUVEC proliferation.
Assay type: cell-based
Method: Human Umbilical Vein Endothelial cells are purchased from Clonetics, Inc., as cryopreserved cells harvested from a pool of donors. These cells, at passage 1, are thawed and expanded in EBM-2 complete medium, until passage 2 or 3. The cells are trypsinized, washed in DMEM+10% FBS+antibiotics, and spun at 1000 rpm for 10 min. Prior to centrifugation of the cells, a small amount is collected for a cell count. After centrifugation, the medium is discarded, and the cells are resuspended in the appropriate volume of DMEM+10% FBS+antibiotics to achieve a concentration of 3×10^5 cells/mL. Another cell count is performed to confirm the cell concentration. The cells are diluted to 3×10^4 cells/mL in DMEM+10% FBS+antibiotics, and 100 μL of cells are added to a 96-well plate. The cells are incubated at 37° C. for 22 h.
Prior to the completion of the incubation period, compound dilutions are prepared. Five-point, five-fold serial dilutions are prepared in DMSO, at concentrations 400-fold greater than the final concentrations desired. 2.5 μL of each compound dilution are diluted further in a total of 1 mL DMEM+10% FBS+antibiotics (400× dilution). Medium containing 0.25% DMSO is also prepared for the 0 μM compound sample. At the 22 h timepoint, the medium is removed from the cells, and 100 μL of each compound dilution is added. The cells are incubated at 37° C. for 2-3 h.
During the compound pre-incubation period, the growth factors are diluted to the appropriate concentrations. Solutions of DMEM+10% FBS+antibiotics, containing either VEGF or bFGF at the following concentrations: 50, 10, 2, 0.4, 0.08, and 0 ng/mL are prepared. […]
At the completion of the 72 h incubation period, the medium is removed, and the cells are washed twice with PBS. […] The cells are thawed and analyzed using the CyQuant fluorescent dye (Molecular Probes C-7026), following the manufacturer's recommendations. The plates are read on a Victor/Wallac 1420 workstation at 485 nm/530 nm (excitation/emission). Raw data are collected and analyzed using a 4-parameter fit equation in XLFit. IC50 values are then determined.
With `CC(C)(C)c1ccc(-n2ncc3cccc(NCc4ccncc4)c3c2=O)cc1` [Example 1, 2-(4-(1,1-Dimethylethyl)phenyl)-8-((4-pyridinylmethyl)amino)-1(2H)-phthalazinone] the IC50 was < 0.5 µM. In the case of `CC(C)(C)c1ccc(-n2ncc3cccc(NCc4c[nH]c5ncccc45)c3c2=O)cc1` [Example 2, 2-(4-(1,1-Dimethylethyl)phenyl)-8-((1H-pyrrolo[2,3-b]pyridin-3-ylmethyl)amino)-1(2H)-phthalazinone], the IC50 is reported as < 0.5 µM. In the case of `CC(C)(C)c1ccc(N2CCc3cccc(NCc4ccncc4)c3C2=O)cc1` [Example 3, 2-(4-(1,1-Dimethylethyl)phenyl)-8-((4-pyridinylmethyl)amino)-3,4-dihydro-1(2H)-isoquinolinone], the IC50 is reported as < 0.5 µM.
